Source: ChEMBL document CHEMBL4311958, “Targeting multiple G-quadruplex-forming DNA sequences: Design, biophysical and biological evaluations of indolo-naphthyridine scaffold derivatives” (Eur J Med Chem, 2019)
Calls of active or inactive are those of the source. The calls are words filed in the database; no cut-off is given here.

Experiments:
Quadruplex DNA [1] = assay: Stabilization of 5'-DABCYL/3'-FAM labeled HTS G-quadruplex oligonucleotide (unknown origin) assessed as change in melting temperature at 5 uM preincubated for 5 mins and measured after 5 mins by FRET assay; type: nucleic-acid assay
A2780 = assay: Cytotoxicity against human A2780 cells assessed as cell viability at 20 uM incubated for 48 hrs by trypan blue assay relative to control; type: functional; details: A2780, 48 h, read-out: Activity
Quadruplex DNA [2] = assay: Stabilization of 5'-DABCYL/3'-FAM labeled BCL2 G-quadruplex oligonucleotide (unknown origin) assessed as change in melting temperature at 5 uM preincubated for 5 mins and measured after 5 mins by FRET assay; type: nucleic-acid assay
Quadruplex DNA [3] = assay: Binding affinity to 5'-DABCYL/3'-FAM labeled cKIT1 G-quadruplex oligonucleotide (unknown origin) assessed as melting temperature at test compound to DNA ratio of 4:1 measured for 10 mins by circular dichroism analysis; type: nucleic-acid assay
Quadruplex DNA [4] = assay: Binding affinity to 5'-DABCYL/3'-FAM labeled cKIT1 G-quadruplex oligonucleotide (unknown origin) assessed as conformational change at test compound to DNA ratio of 4:1 measured for 10 mins by circular dichroism analysis; type: nucleic-acid assay
A549 = assay: Cytotoxicity against human A549 cells assessed as cell viability at 20 uM incubated for 48 hrs by trypan blue assay relative to control; type: functional; details: A549, 48 h, read-out: Activity
dsDNA = assay: Stabilization of 5'-DABCYL labeled double stranded DNA (unknown origin) assessed as change in melting temperature at 5 uM preincubated for 5 mins and measured after 5 mins by FRET assay; type: nucleic-acid assay
Quadruplex DNA [5] = assay: Stabilization of 5'-DABCYL/3'-FAM labeled cKIT1 G-quadruplex oligonucleotide (unknown origin) assessed as change in melting temperature at 5 uM preincubated for 5 mins and measured after 5 mins by FRET assay; type: nucleic-acid assay
Quadruplex DNA [6] = assay: Binding affinity to 5'-biotin-TEG labeled cKIT1 G-quadruplex oligonucleotide (unknown origin) by SPR analysis; type: nucleic-acid assay
Quadruplex DNA [7] = assay: Stabilization of 5'-DABCYL/3'-FAM labeled KRAS G-quadruplex oligonucleotide (unknown origin) assessed as change in melting temperature at 5 uM preincubated for 5 mins and measured after 5 mins by FRET assay; type: nucleic-acid assay
HT-29 = assay: Cytotoxicity against human HT-29 cells assessed as cell viability at 20 uM incubated for 48 hrs by trypan blue assay relative to control; type: functional; details: HT-29, 48 h, read-out: Activity
Quadruplex DNA [8] = assay: Binding affinity to 5'-cy5 labeled cKIT1 G-quadruplex oligonucleotide (unknown origin) by microscale thermophoresis analysis; type: nucleic-acid assay
Quadruplex DNA [9] = assay: Competitive binding affinity to 5'-DABCYL/3'-FAM labeled cKIT1 G-quadruplex oligonucleotide (unknown origin) at 5 uM preincubated for 5 mins and measured after 5 mins in presence of ds DNA by FRET assay; type: nucleic-acid assay
Quadruplex DNA [10] = assay: Stabilization of 5'-DABCYL/3'-FAM labeled cMYC G-quadruplex oligonucleotide (unknown origin) assessed as change in melting temperature at 5 uM preincubated for 5 mins and measured after 5 mins by FRET assay; type: nucleic-acid assay

Row | ΔTm (Quadruplex DNA [1]) [°C] | ΔTm (Quadruplex DNA [2]) [°C] | Tm (Quadruplex DNA [3]) [°C] | Activity (Quadruplex DNA [4]) | ΔTm (dsDNA) [°C] | ΔTm (Quadruplex DNA [5]) [°C] | Kd (Quadruplex DNA [6]) [nM] | ΔTm (Quadruplex DNA [7]) [°C] | Kd (Quadruplex DNA [8]) [nM] | Activity (Quadruplex DNA [9]) | ΔTm (Quadruplex DNA [10]) [°C] | deltaTm (dsDNA) | deltaTm (Quadruplex DNA [7]) | deltaTm (Quadruplex DNA [5]) | deltaTm (Quadruplex DNA [2]) | deltaTm (Quadruplex DNA [10]) | SMILES | viability at 20 µM (A2780) [%] | viability at 20 µM (A549) [%] | viability at 20 µM (HT-29) [%]
1 | 4.5 | 3.4 | 59.9 | Active | 0.1 | 6.3 | 510 | 0.8 | 300 | inactive | 4.9 | – | – | – | – | – | COc1ccc2c(c1OC)c(=O)n1c3ccc(OCC(=O)NCCCN4CCOCC4)cc3c3ccnc2c31 | 94 | 69 | 85
2 | 0.6 | 2.3 | – | – | – | – | – | – | – | – | 0.8 | inactive | inactive | inactive | – | – | COc1ccc2c(c1OC)c(=O)n1c3ccccc3c3cc(C(=O)N4CCN(CCO)CC4)nc2c31 | – | – | –

Continued, compound first:

Row | SMILES | ΔTm (Quadruplex DNA [1]) [°C] | ΔTm (Quadruplex DNA [2]) [°C] | Tm (Quadruplex DNA [3]) [°C] | Activity (Quadruplex DNA [4]) | ΔTm (dsDNA) [°C] | ΔTm (Quadruplex DNA [5]) [°C] | Kd (Quadruplex DNA [6]) [nM] | ΔTm (Quadruplex DNA [7]) [°C] | Kd (Quadruplex DNA [8]) [nM] | Activity (Quadruplex DNA [9]) | ΔTm (Quadruplex DNA [10]) [°C] | deltaTm (dsDNA) | deltaTm (Quadruplex DNA [7]) | deltaTm (Quadruplex DNA [5]) | deltaTm (Quadruplex DNA [2]) | deltaTm (Quadruplex DNA [10]) | viability at 20 µM (A2780) [%] | viability at 20 µM (A549) [%] | viability at 20 µM (HT-29) [%]
3 | C=C(C)Cc1c(OCC(=O)NCC2CCCN2CC)ccc2c1c1ccnc3c4ccccc4c(=O)n2c13 (centres undefined) | 1.7 | 0 | – | – | – | 1.6 | – | – | – | – | 3.4 | inactive | inactive | – | – | – | – | – | –
4 | CCN1CCN(C(=O)c2cc3c4ccccc4n4c(=O)c5ccccc5c(n2)c34)CC1 | 1.5 | 2.3 | – | – | 0.6 | – | – | – | – | – | 1.2 | – | inactive | inactive | – | – | – | – | –
5 | CN(C)Cc1c(O)ccc2c1c1ccnc3c4ccccc4c(=O)n2c13 | 3.3 | 1.1 | – | – | 0.1 | 5 | – | – | – | – | 3.8 | – | inactive | – | – | – | – | – | –
6 | COc1ccc2c(c1OC)c(=O)n1c3ccccc3c3cc(C(=O)N4CCN(Cc5ccccc5)CC4)nc2c31 | 0.5 | – | – | – | – | – | – | – | – | – | – | inactive | inactive | inactive | inactive | inactive | – | – | –
